Compound | melting point [°C]
O=C(O)C=Cc1cccc(OCc2nc(-c3ccccc3)c(-c3ccccc3)o2)c1 | 145 to 147
O=C(O)C[C@@H]1Cc2cccc3c2[C@@H](CCC3)C1 (relative stereo) | 115 to 116
CC(=O)n1c(=O)n(CCN2CCC(CC(=O)c3ccc(F)cc3)CC2)c2ccccc21 | 149
COc1ccc2[nH]cc(C3CCC4(CC3)OCCO4)c2c1 | 153 to 155
C=CCN1CCC=C(c2ccc(C(C)(C)CCCCCC)cc2O)C1 | 109 to 110
CCOC(=O)c1cc(N)cc(N)c1 | 77 to 78
COC(=O)c1ccc(OC2=C3N=C4CCCCC4=C3C(Cc3ccc(OC)c(OC)c3)C=C2)o1 (stereo unspecified) | 100 to 101
CCCCOC(=O)CNC(=O)c1ncccc1OCc1ccccc1 | 55 to 58
CC(=O)OCC1OC(SCC=Cc2ccccc2)C(OC(C)=O)C(OC(C)=O)C1OC(C)=O (stereo unspecified) | 113 to 114
Cc1cccc(-c2nc(N)sc2-c2ccnc(-c3ccc(OC(F)(F)F)cc3)c2)n1 | 222 to 224
Cc1cc2c(=O)[nH]c(CCl)nc2cc1Cl | 287 to 290
O=C(O)C(=O)Cc1ccsc1 | 203 to 204
CC(=O)C=Cc1ccc2sccc2c1 | 75
COC(OC)c1ccc(C=C2C(=O)C3(C)CCC2C3(C)C)cc1 (stereo unspecified) | 98
CCCCCCCCCCCCCCCCCCCCCCNc1cc(N)c([N+](=O)[O-])cc1[N+](=O)[O-] | 108 to 110
CC(=O)NC[C@H]1CN(c2ccc(C(=O)c3cnc4c5ccccc5ccn34)cc2)C(=O)O1 | 239 to 240
O=C1OC(c2ccc(F)cc2)C(Cn2cncn2)(c2ccc(Cl)cc2Cl)O1 (stereo unspecified) | 191 to 192
CC(C)(C)OC(=O)NCc1ccc(C(=O)Nc2ccc(Nc3cc(-c4cccc5c4oc4ccccc45)ncn3)cc2)c(F)c1 | 255
NNC(=O)c1cc2ccncc2c2sc3ccccc3c12 | 285 to 289
CC(=O)Nc1ccc(C(=O)OCC=CC(C)Oc2ccc(Oc3cnc4cc(Cl)ccc4n3)cc2)cc1 (stereo unspecified) | 62 to 68
CC(C)OC1(c2ccc(Cl)cc2)OC(c2ccncc2)=Nc2ccccc21 (stereo unspecified) | 114 to 115
CCCCCCCNC(=O)N(C)c1cccc(-c2ccc(CC(OCC)C(=O)O)cn2)c1 (stereo unspecified) | 140 to 141
O=c1n(C2CCCCC2)c2cc(Cl)ccc2n1S(=O)(=O)c1ccc([N+](=O)[O-])cc1 | 162

Compound | melting point [°C]
COC(=O)c1cc(CBr)cnc1C1=NC(C)(C(C)C)C(=O)N1C(=O)c1ccccc1 (stereo unspecified) | 88 to 119
CN1CCc2c(N3CCCC3)c(F)c(N)c3c(=O)c(C(=O)O)cn1c23 | > 290
O=C(O)c1cc(S(=O)(=O)N2CCC(CO)CC2)ccc1Cl | 185 to 187
Brc1ccc(-c2cc(-c3ccc(Br)cc3)cc(-c3ccc(Br)cc3)c2)cc1 | 254 to 255
Cc1cc(C(=O)NCO)ncc1C(c1c(F)ccc(F)c1F)S(=O)(=O)CCC(F)(F)F (stereo unspecified) | 146 to 148
CCCCCCNC(=S)NN=C(CCCCl)c1ccccc1 | 42 to 44
CC1(C)C(=O)C(c2cc(F)cc(F)c2)=C1c1ccc(S(C)(=O)=O)cc1 | 113 to 114
O=C(Cl)OCC1c2ccccc2Oc2ccccc21 | 64 to 65
O=C(O)c1cccc(NC(=O)C(CS)Cc2ccc(F)cc2F)c1 (stereo unspecified) | 168 to 170
CSc1cc(C=O)cc(OCc2ccccc2)c1O | 117 to 119
CCCCc1cn(CCCC)c(=O)n1Cc1ccc(-c2ncccc2-c2nnn[nH]2)cc1 | 178 to 180
C=CCOC(=O)[C@H](Cc1ccccc1)NC(=O)C(F)(F)F | 44 to 45
C=C1CC(C)(c2ccc(Nc3c4ccccc4nc4occc34)cc2)OC1=O (stereo unspecified) | 85 to 87
CN(c1n[nH]c2ncnc(Nc3cccc(Cl)c3)c12)C1CCCCC1 | 188 to 190
CCCOc1ccc2[nH]c(-c3cc(C)c(O)c(C)c3)c(C)c2c1 | 124
Cc1c(C(=O)O)ccc(=O)n1-c1ccc(Cl)cc1 | 271 to 273
CC(=O)N1CCC(CCC(=O)c2ccc3c4c2CCCC4CN3C(C)=O)CC1 (stereo unspecified) | 130 to 132
COc1ccc(C(=O)Cc2c(Cl)cncc2Cl)c2c1OC(C)(C)C2 | 127 to 131
Cc1ccccc1C1c2cc(Cl)ccc2OC(=O)C1C(=O)N(C)Cc1cc(C(F)(F)F)cc(C(F)(F)F)c1 (stereo unspecified) | 148 to 149
CCOc1c(C=O)sc(NC(C)=O)c1C#N | 276 to 277
Cc1ncc(CN2CCCNC2=C[N+](=O)[O-])s1 | 204 to 207
CCCCCCCCCCCCCCCC(=O)NCCCC[C@H](N)C(=O)O | 240 to 245
Cc1cc2oc(=O)c3c(c2cc1NC(=O)c1ccccc1)CCN(CCN1CC2CCC(CC2)C1)C3 | 174 to 176

Next, values leading:

melting point [°C] | Compound
122 to 124 | CC(=O)OC1CCC2(C)C(CCC3=C4C(=O)CC(C(C)CCCN(C)C)C4(C)CCC32)C1 (stereo unspecified)
215 to 217 | Cc1ccc(NC(=O)c2nc[nH]c2C)cc1Cl
154 | Cc1nc(NC(=O)Cc2cccs2)c(Br)c(C)c1Br
209 to 210 | CC(=O)c1ccc(-c2cn3ccccc3n2)cc1
102 | CNn1c(C)nn(C(=O)NC(C)(C)CCc2ccccc2)c1=O
139 | O=[N+]([O-])CS(=O)(=O)c1ccc2c(c1)CCN2
108 | CS(=O)(=O)N1CCN([C@@H](CNS(=O)(=O)c2ccc(OCc3ccc(C#N)cc3)cc2)C(=O)NO)CC1
72 to 75 | CCCCCCCCCCCCCCOc1ccc(CNc2cccc(CO)c2)cc1
105 to 107 | CCOC(=O)c1nccn1Cc1ccc(Cl)cc1[N+](=O)[O-]
119 | NCC(O)CNC(=O)CCCCCCCCCCCO (stereo unspecified)
223 to 224 | CC1(C)CSCC(C)(C)c2[nH]c(-c3ccccc3)nc21
67 to 69 | CCCCCc1ccc(OC(=O)Oc2ccc([N+](=O)[O-])cc2)cc1
221 to 223 | O=C(O)CCNC(=O)C1CN(c2ccc(-c3noc(=O)[nH]3)cc2)C(=O)O1 (stereo unspecified)
216 to 217 | Nc1ncc(C2OC(CO)C(O)C2O)c(=O)[nH]1 (stereo unspecified)
230 | Cc1c(Br)c2ccccn2c1C(=O)c1ccc(N)c(C(=O)O)c1
70 to 72 | O=S(=O)(NCCc1ccc(CCO)cc1)c1cccc(C(F)(F)F)c1
60 | CC(C)(Br)C1CC(=O)OC1OCc1cccc(Oc2ccccc2)c1 (stereo unspecified)
148 to 150 | CCOC(=O)c1cn(C2CC2)c2nc(N3CC(C)C(N)C3)c(F)cc2c1=O (stereo unspecified)
105 to 108 | CCCc1c(OCCCCCOc2ccc(C(=O)c3ccccc3CC(=O)O)cc2CCC(=O)O)ccc2c1OCCC2=O
132 | CCCCCCCCCCCCS(=O)(=O)Nc1cc(NC(=O)c2ccc(F)c(F)c2)ccc1OC
142 | COc1cc(O)c(C(=O)C=Cc2ccc(OC(C)=O)cc2)c(OC)c1
144 to 146 | COC(=O)c1cc(-c2ccncc2)ccc1C(=O)N1CCN(C(=O)OC(C)(C)C)CC1
171 | CC(C)(C)c1ccc2[nH]c(C(=O)c3ccc(Cl)cc3)c(CC(=O)O)c2c1
120 to 121 | COc1cc(C(=O)CCCc2ccccc2)cc([N+](=O)[O-])c1O
109 | CCOC(=O)C=CC(=CN)C(=O)OCC

From a melting point compilation (Tetko et al.; mined from patent text by program, amines drawn as free bases though some values may be those of a salt)
